Measurements published in US20250281610A1, “P2RY2 ACTIVITY MODULATORS” (Deutsches Krebsforschungszentrum Stiftung des öffentlichen …, priority 2022, published 2025).

Key:
[1] = test system: SW480 cells; assay: Viability of SW480 cells in co-culture with CEA-specific CAR-T cells (CellTiter-Blue); type: cell-based, human; conditions: 10 μM AR-C, 48 hours (FIG. 20)
Description: FIG. 20. Effects of P2RY2 agonist and P2RY2 antagonist on cancer cell viability in T cell-cancer cell co-cultures. T cells transduced with a CEA-specific CAR (CAR-T) were co-cultured with genetically edited SW480 cells for 48 hours in the absence or presence of 40 μM ATP, 20 μM ATPγS, 10 μM Diquafosol, 5 μM Denufosol and 10 μM AR-C 118925XX (AR-C). Control cells: SW480 cells transduced with non-targeting sgRNA and Cas9 (gNT); P2RY2 deficient cells: SW480 cells transduced with P2RY2-targeting sgRNA and Cas9 (gP2RY2-3, gP2RY2-4); B7-H3 (CD276) deficient cells: SW480 cells transduced with B7-H3-targeting sgRNA and Cas9 (gCD276-1); P2RY2 and B7-H3 double deficient cells: SW480 cells transduced with P2RY2-targeting sgRNA, B7-H3-targeting sgRNA, and Cas9 (gCD276-1 gP2RY2-3 DKO, gCD276-1 gP2RY2-4 DKO); P2RY2 overexpression cells: SW480 cells transduced with the open reading frame of P2RY2 (P2RY2-OE); B7-H3 overexpression cells: SW480 cells transduced with the open reading frame of CD276 (CD276-OE). […] Normalized cell viability of the SW480 cells was determined by the CellTiter-Blue® Cell Viability (Promega) assay after co-culture with CEA CAR-T cells. The end-point cell viability was normalized to SW480 cells, as measured using the CellTiter-Blue® Cell Viability (Promega) assay, in cultures without T cells. […]

[2] = test system: MART-1-specific TCR transduced T cells cultured with MART-1-epitope transduced BxPC3 cells; assay: T cell activation markers in co-culture of MART-1-specific TCR-T cells with MART-1+ BxPC3 cells; type: cell-based, human; conditions: single agent: 5 μM AR-C, 10 μg/ml atezolizumab or 10 μg/ml durvalumab, 6-24 hours, CD8+ MART-1-specific TCR+ population (FIG. 10)
Description: FIG. 10. […] Untreated cells served as the control.
MART-1 specific T cells were generated as described (Mezzadra et al., Nature 549, 106-110 (2017); Jorritsma et al., Blood 110 (10): 3564-3572. (2007)). To generate CD33-specific chimeric antigen receptor (CAR) T cells, a CD33Hul95-CD28Z CAR (described in WO 2019/178382) cassette was cloned into a retroviral vector, and the resulting virus was used to transduce T cells as described (Mezzadra et al., Nature 549, 106-110 (2017); Jorritsma et al., Blood 110 (10): 3564-3572. (2007)).
MART1-specific CD8+ T cells and MART1 epitope-expressing cancer cells were mixed at a ratio of 1:16 to 1:4. […] T cell activation was assessed by surface staining with anti-CD137-BV421 (4-1BB, Biolegend), anti-CD69-APC/Fire™ 750 (FN50, Biolegend), anti-CD25-AF700 (BC96, Biolegend) antibodies and intracellular staining with anti-IL-2-PE/Cy7 (MQ1-17H12, Biolegend), anti-IFN-7-BV421 (4S.B3, Biolegend), anti-TNF-α-BV785 (MAb11, Biolegend) antibodies, followed by flow cytometry analysis. For intracellular staining, brefeldin A (Biolegend) was added to the cell culture medium 4 h before cells were harvested. The viability of cancer cells that grow in suspension including THP-1 cells was assessed by flow cytometry-based absolute cell counting using AccuCount beads (Spherotech). For adherent cancer cells including BxPC3 and MCF7, the cell viability was quantified using CellTiter-Blue Cell Viability Assay (Promega).

## Cc1ccc2c(c1)C=Cc1cc(C)ccc1C2c1cn(Cc2ccc(C(=O)Nc3nn[nH]n3)o2)c(=O)[nH]c1=S [AR-C 118925XX]
[1]
  tumor cell viability: reduced
[2]
  expression of CD25 on T cells: elevated
  expression of CD69 on T cells: elevated
  expression of CD137 on T cells: elevated
